Measured values as given in patent publication US9273092B2, “Selective binding compounds” (RIOGIN Corporation, priority 2011, dated 2016).

The sequences below were run against hSA (Homo sapiens, UniProt P02768) (assay: hSA binding assay (hSA-coated microtiter plate, streptavidin-polyHRP/ABTS, OD 405 nm)). Conditions: not given.
Procedure: hSA binding assay. Microtiter 96 well plate is coated, overnight at 4° C., using […] of a solution of hSA in PBS ([…]). Plate is washed with PBS and blocked, for 1 hours, using 150 ml, per well, of a 10% solution of Tween 20 in water. After 1 hour the wells are washed with PBS. The hSA binders tested are dissolved in PBS, 100 ml of the tested solutions are then added in the well and incubated for 2 hours. After 2 hours, the solution are discarded and the wells are washed using PBS, 0.1% Tween 20. 100 ml of a solution of streptavidin-polyHRP in PBS 1.375% casein is added to the wells and incubated for 1 more hours. Finally wells are washed with PBS, 0.1% Tween 20, and 100 ml ABTS in phosphate-citrate buffer with sodium perborate is added. After a few minutes OD are read at 405 nm.
A plurality of compounds according to the invention were prepared. All of the compounds contained the Cys-Pro-Cys moiety. These compounds and an assay control were tested using the above procedure. Some compounds were tested twice (Exp 1 and Exp 2).

hSA, sequence (P02768 25-609): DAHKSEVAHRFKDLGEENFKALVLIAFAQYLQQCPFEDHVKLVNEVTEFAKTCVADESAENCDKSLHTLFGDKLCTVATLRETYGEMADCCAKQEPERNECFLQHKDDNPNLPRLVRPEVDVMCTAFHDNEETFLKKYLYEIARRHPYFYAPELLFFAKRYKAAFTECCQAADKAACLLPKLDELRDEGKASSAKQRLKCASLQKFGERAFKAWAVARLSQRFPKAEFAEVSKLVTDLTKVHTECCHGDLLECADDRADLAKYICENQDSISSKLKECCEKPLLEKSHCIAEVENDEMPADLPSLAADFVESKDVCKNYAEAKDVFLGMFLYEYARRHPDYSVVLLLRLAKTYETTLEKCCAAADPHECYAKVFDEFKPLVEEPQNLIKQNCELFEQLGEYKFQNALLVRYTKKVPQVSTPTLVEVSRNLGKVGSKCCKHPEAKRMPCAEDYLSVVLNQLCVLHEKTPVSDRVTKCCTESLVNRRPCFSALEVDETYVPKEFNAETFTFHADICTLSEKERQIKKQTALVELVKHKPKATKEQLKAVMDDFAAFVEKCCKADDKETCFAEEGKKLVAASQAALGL

Row | Binding, Exp 2 | Binding, Exp 1 | Sequence
1 | 0.257 | – | KEIEDICPCLW [Compound 93, KEIEDI-LW, "-" represents cysteine-proline-cysteine]
2 | 0.4961 | 0.04979 | KFIEDICPCLW [Compound 13, KFIEDI-LW, "-" represents cysteine-proline-cysteine]
3 | 0.2342 | 1.415 | KIIEDICPCLW [Compound 62, KIIEDI-LW, "-" represents cysteine-proline-cysteine]
4 | – | 0.1213 | KLFEDICPCLW [Compound 33, KLFEDI-LW, "-" represents cysteine-proline-cysteine]
5 | 0.1074 | 0.2126 | KLIADICPCLW [Compound 46, KLIADI-LW, "-" represents cysteine-proline-cysteine]
6 | – | 0.1237 | KLIDDICPCLW [Compound 34, KLIDDI-LW, "-" represents cysteine-proline-cysteine]
7 | – | 0.153 | KLIEDACPCLW [Compound 39, KLIEDA-LW, "-" represents cysteine-proline-cysteine]
8 | – | 0.04808 | KLIEDECPCLW [Compound 11, KLIEDE-LW, "-" represents cysteine-proline-cysteine]
9 | – | 0.1836 | KLIEDFCPCLW [Compound 44, KLIEDF-LW, "-" represents cysteine-proline-cysteine]
10 | – | 0.08281 | KLIEDICPCAW [Compound 25, KLIEDI-AW, "-" represents cysteine-proline-cysteine]
11 | – | 0.1033 | KLIEDICPCFW [Compound 30, KLIEDI-FW, "-" represents cysteine-proline-cysteine]
12 | – | 0.2709 | KLIEDICPCLE [Compound 49, KLIEDI-LE, "-" represents cysteine-proline-cysteine]
13 | – | 0.07161 | KLIEDICPCLH [Compound 23, KLIEDI-LH, "-" represents cysteine-proline-cysteine]
14 | – | 0.06947 | KLIEDICPCLK [Compound 21, KLIEDI-LK, "-" represents cysteine-proline-cysteine]
15 | – | 0.1651 | KLIEDICPCLQ [Compound 42, KLIEDI-LQ, "-" represents cysteine-proline-cysteine]
16 | – | 0.08742 | KLIEDICPCLW [Compound 26, KLIEDI-LW, "-" represents cysteine-proline-cysteine]
17 | – | 0.2445 | KLIEDICPCQW [Compound 48, KLIEDI-QW, "-" represents cysteine-proline-cysteine]
18 | – | 0.1327 | KLIEDICPCTW [Compound 35, KLIEDI-TW, "-" represents cysteine-proline-cysteine]
19 | – | 0.05545 | KLIEDICPCVW [Compound 15, KLIEDI-VW, "-" represents cysteine-proline-cysteine]
20 | – | 0.5209 | KLIEDQCPCLW [Compound 55, KLIEDQ-LW, "-" represents cysteine-proline-cysteine]
21 | – | 0.5311 | KLIEDVCPCLW [Compound 56, KLIEDV-LW, "-" represents cysteine-proline-cysteine]
22 | – | 0.09642 | KLIEEICPCLW [Compound 28, KLIEEI-LW, "-" represents cysteine-proline-cysteine]
23 | – | 0.03868 | KLIEVICPCLW [Compound 5, KLIEVI-LW, "-" represents cysteine-proline-cysteine]
24 | – | 0.3109 | KLIEYICPCLW [Compound 53, KLIEYI-LW, "-" represents cysteine-proline-cysteine]
25 | 0.1771 | 0.3066 | KLIQDICPCLW [Compound 51, KLIQDI-LW, "-" represents cysteine-proline-cysteine]

Same assay, conditions: given only for compounds with an Exp 2 value

Row | Bmax | Sequence
26 | 1.425 | KEIEDICPCLW [Compound 93, KEIEDI-LW, "-" represents cysteine-proline-cysteine]
27 | 1.198 | KFIEDICPCLW [Compound 13, KFIEDI-LW, "-" represents cysteine-proline-cysteine]
28 | 0.8075 | KIIEDICPCLW [Compound 62, KIIEDI-LW, "-" represents cysteine-proline-cysteine]
29 | 1.077 | KLIADICPCLW [Compound 46, KLIADI-LW, "-" represents cysteine-proline-cysteine]
30 | 1.048 | KLIQDICPCLW [Compound 51, KLIQDI-LW, "-" represents cysteine-proline-cysteine]
